# Measurements reported in patent US20250325542A1, “INHIBITORS OF ANTIMOCROBIAL RESISTANCE AND METHOS USING SAME” (Baylor College of Medicine, priority 2022, published 2025).
# “Also recorded” adds a separate entry of the source. Like-named read-outs stand apart in the source and are kept apart here.
# Legend:
# KPC-2 [1] = target: T1, KPC-2 (Klebsiella pneumoniae, UniProt Q9F663); assay: KPC-2 enzyme inhibition (Ki); type: biochemical
# Source text: Several hits were identified from the qDOS38_1 library against the KPC-2 enzyme. All compounds were synthesized without linker C1a. Among the hit compounds, CDD-2312 had the highest enrichment score of 5.9 but a lower count number of 115 compared to other libraries screened at the same time.
# KPC-2 [2] = target: T1, KPC-2; assay: DNA-encoded library affinity selection against KPC-2; type: binding; details: qDOS38_1 library, on-DNA
# NDM-1 = NDM-1 (Klebsiella pneumoniae, UniProt C7C422); type: biochemical
# Chain of NDM-1 (C7C422 whole entry, looked up, species assumed): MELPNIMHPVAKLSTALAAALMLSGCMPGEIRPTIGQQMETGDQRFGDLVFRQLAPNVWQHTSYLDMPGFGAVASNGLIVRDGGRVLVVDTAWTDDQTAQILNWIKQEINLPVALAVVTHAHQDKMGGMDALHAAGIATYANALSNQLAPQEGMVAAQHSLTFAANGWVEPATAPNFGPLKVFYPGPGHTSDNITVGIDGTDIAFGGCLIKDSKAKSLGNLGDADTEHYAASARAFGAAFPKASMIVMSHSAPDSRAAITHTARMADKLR
# E. coli NDM-1/XL-1B = assay: Accumulation assay in bacteria (LC-MS); type: cell-based; details: 50 μM compound, 10 min at 37° C.; tetracycline positive, clindamycin negative control
# Protocol: Briefly, the overnight culture of E. coli NDM-1/XL-1B was inoculated into fresh Luria Bertani (LB) broth (1:100 v/v) and incubated at 37° C. with shaking to an optical density (OD600) of 0.55-0.60. The bacteria were pelleted by centrifugation and washed with 1× phosphate-buffered saline (PBS) before being re-suspended in PBS (28 times concentrated). The colony-forming units (CFUs) were determined by a calibration curve. Re-suspended cells were aliquoted into 1.5 mL Eppendorf tubes and recovered at 37° C. for 5 min. The compounds and controls were added with a final concentration of 50 μM. The mixtures were incubated at 37° C. for 10 min and the OD600 values were recorded to note the growth changes. To collect the cell pellets, 800 μL bacteria-compound mixtures were layered onto 700 μL silicone oil (9:1 v/v, AR20/Sigma High Temperature, pre-cooled at −80° C.) and bacteria were pelleted through the silicone oil by centrifugation. Cell pellets were re-suspended in 200 μL H2O and lysed using three freeze-thaw cycles of 3 min in liquid nitrogen followed by 3 min in a 65° C. water bath. Supernatants were collected after centrifuging and the cell debris was re-suspended in 100 μL methanol. The mixtures from cell debris were then centrifuged, and the methanol supernatants were combined with the supernatants from the last step before LC-MS analysis.
# Two NL of supernatant was injected into a Thermo TSQ Quantis MS coupled with a Thermo Vanish UHPLC for analysis. The Phenomenex Luna C18 column (1.0 mm×50 mm, 1.7 μm) was used for resolving tested compounds with the column temperature being kept constant at 40° C. […] The compound concentrations in the samples were calculated based on their corresponding standard curves. […]
# This could be partially due to the low accumulation of compounds into the periplasm and/or due to modest in vitro inhibition potency (Ki). To discern between the possibilities, the accumulation of inhibitors into bacteria was quantified using mass spectrometry. Compounds were pre-incubated with E. coli inoculum before cells were washed, lysed, and analyzed via mass spectrometry. […]
# E. coli = assay: MIC of PBP-3 screening hits against E. coli; type: cell-based; details: for MIC: Escherichia coli, inhibitor alone, read-out: E. coli minimum inhibitory concentration (MIC)
# Protocol: (§1) Similarly to KPC-2 and NDM-1, PBP-3 was screened against the β-lactamase-focused library and several hits were identified from qDOS38_2 and qDOS38_4 (Table 7). Since PBP-3 is not a β-lactamase enzyme, the inhibition assay cannot be used to determine the biochemical potency of inhibitor against PBP-3. Instead, in vivo potency was determined directly against E. coli and A. baumanii. Since all bacteria express PBP-3 naturally, other modifications to wild-type bacteria were not necessary.
# (§2) Unlike β-lactamase inhibitor MIC determinations, which measure the synergy between inhibitor and antibiotic, PBP-3 inhibitor MIC determination only measures a single dimension concentration gradient of the inhibitor.
# A. baumanii = assay: MIC of PBP-3 screening hits against A. baumanii; type: cell-based; details: inhibitor alone
# Protocol: as §1, §2
# E. coli expressing NDM-1 = type: cell-based; details: Ins = insoluble
# [3] = Solubility observed in assay media; type: physicochemical
# T1 sequence (Q9F663 whole entry, looked up, species assumed): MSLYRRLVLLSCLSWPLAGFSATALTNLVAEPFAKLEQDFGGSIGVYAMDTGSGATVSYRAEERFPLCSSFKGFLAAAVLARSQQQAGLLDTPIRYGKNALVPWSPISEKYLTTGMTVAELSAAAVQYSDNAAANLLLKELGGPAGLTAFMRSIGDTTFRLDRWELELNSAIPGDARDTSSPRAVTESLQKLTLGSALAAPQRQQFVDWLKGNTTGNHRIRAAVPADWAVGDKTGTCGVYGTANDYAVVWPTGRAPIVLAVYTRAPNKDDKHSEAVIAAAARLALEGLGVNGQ
compound,measurement,setting,value
"COc1cc(-c2cnc(NCC(=O)O)nc2)cc(C=O)c1OCC(=O)N(C)C [CDD-2312, (5-(4-(2-(dimethylamino)-2-oxoethoxy)-3-formyl-5-methoxyphenyl)pyrimidin-2-yl)glycine]",Ki,KPC-2 [1],657000 ± 123000 nM
same,enrichment score,KPC-2 [2],5.9
"NCc1cccc(NCc2cccc(-c3ccc(C(=O)O)c(O)c3)c2)c1 [CDD-2616, 3′-(((3-(aminomethyl)phenyl)amino)methyl)-3-hydroxy-[1,1′-biphenyl]-4-carboxylic acid]",Ki,NDM-1,900 ± 440 nM
same,NDM-1 Ki (μM),NDM-1,sub-micromolar inhibition potency
same,accumulation in bacteria,E. coli NDM-1/XL-1B,comparable to that of the positive control
"NC(Cc1ccc(O)c(O)c1)C(=O)NCCc1ccccc1 (centres unmarked) [CDD-2507, 2-amino-3-(3,4-dihydroxyphenyl)-N-phenethylpropanamide]",growth of bacteria below the MIC,"E. coli; 16 μg/mL, E. coli",slower growth of bacteria
same,MIC,E. coli,128 µg/mL
same,effect against A. baumanii,A. baumanii,Neither of the compounds had any significant effect
"CNCc1cccc(NCc2ccc(-c3ccc(C(=O)O)c(O)c3)o2)c1 [CDD-2376, 2-hydroxy-4-(5-(((3-((methylamino)methyl)phenyl)amino)methyl)furan-2-yl)benzoic acid]",accumulation in bacteria,E. coli NDM-1/XL-1B,lowest amount of accumulation; also recorded: lowest of all three compounds tested and comparable to that of the negative control
"Cc1cc(CNc2cccc(CN)c2)cc(-c2ccc(C(=O)O)c(O)c2)c1 [CDD-2997, 3′-(((3-(aminomethyl)phenyl)amino)methyl)-3-hydroxy-5′-methyl-[1,1′-biphenyl]-4-carboxylic acid]",Ki,NDM-1,530 ± 370 nM
same,Imipenem MIC (μg/mL),E. coli expressing NDM-1; [inhibitor] 64 μg/mL,Ins
same,Imipenem MIC (μg/mL),E. coli expressing NDM-1; [inhibitor] 128 μg/mL,Ins
same,solubility in aqueous solution,"[3]; MIC medium, above 64 μg/mL",low solubility in aqueous solution
same,solubility in buffer,[3]; at the accumulation assay concentration (50 μM),low solubility in buffer
"NCc1cccc(NCc2cccc(-c3ccc(C(=O)O)c(O)c3)n2)c1 [CDD-2653, 4-(6-(((3-(aminomethyl)phenyl)amino)methyl)pyridin-2-yl)-2-hydroxybenzoic acid]",accumulation in bacteria,E. coli NDM-1/XL-1B,much higher
"Nc1cccc(NCc2ccc(-c3cncc(C(=O)O)c3)cc2)c1 [CDD-2396, 5-(4-(((3-aminophenyl)amino)methyl)phenyl)nicotinic acid]",MIC,E. coli,256 µg/mL
same,effect against A. baumanii,A. baumanii,Neither of the compounds had any significant effect
